Data on 4 molecules can be found in patent publication US8399672B2, “Compound having affinity for amyloid” (Nihon Medi-Physics Co., Ltd., priority 2007, dated 2013).

Read-outs that look alike come from different tables or passages of the source.

For data set [1], the target named is T1, amyloid in brain (aggregated Aβ1-42 injected into amygdaloid nucleus) (Homo sapiens, UniProt P05067).
T1 construct: Aβ1-42 (manufactured by Wako); purchased Wako
Put plainly: Confirmation of binding to amyloid in brain (in vitro autoradiogram of brain slice). Also on record: species or system male Wistar rat. The settings on record: rat brain slice immersed in sample solution (0.1 MBq/mL). On the procedure:
(1) Aβ1-42 (manufactured by Wako) was dissolved in phosphate buffer (pH 7.4) and shaken at 37° C. for 72 hours, to obtain a 1 mg/mL suspension of aggregated Aβ (hereinafter referred to as amyloid suspension in the present Example).
(2) Under thiopental anesthesia, the […] of the amyloid suspension was injected into an amygdaloid nucleus on one side of a male Wistar rat (7-week old). As a control, 2.5 μL of a phosphate buffered physiological saline solution (pH 7.4) was injected into an amygdaloid nucleus on the other side of the rat. A brain was removed from the rat a day after the injection of an amyloid suspension and a phosphate buffered physiological saline solution (pH 7.4) to prepare a brain slice of 10 μm in thickness with a microtome (type: CM3050S, manufactured by LEICA).
(3) Compound 6 in diethylether solution was diluted with a 1% bovine serum albumin/phosphate buffer (hereinafter referred to as 1% PB/BSA in the present Example) to obtain a sample solution (0.1 MBq/mL in radioactivity concentration). […]
(5) After the completion of the image analysis using the Bio-imaging Analyzer, pathological staining with Thioflavin T was carried out to perform imaging by use of a fluorescence microscope (manufactured by NIKON Corporation; type: TE2000-U model; excitation wavelength: 400-440 nm; detection wavelength: 470 nm). […]

A further data set has as its system Escherichia coli WP2uvrA. The data set is described as follows: Reverse mutation test (Ames test), strain WP2uvrA. Type of data set: cell-based. As to the method: (§1) In order to examine gene mutagenicity of Compound 5, reverse mutation test using Salmonella typhimurium TA98 and TA100, TA1535, TA1537 and Escherichia coli WP2uvrA (hereinafter referred to as Ames test) was conducted.
(§2) The test was conducted without addition of S9mix and with addition of S9mix. Dimethylsulfoxide (DMSO) was used as a negative control.
(§3) As a sample solution to be added to a test plate, a 50 mg/mL solution of Compound 5 in DMSO and solutions obtained by diluting this solution with DMSO to have various concentrations were prepared. For positive control without addition of S9mix, when TA98 was used as a test strain, a solution of AF-2 (compound concentration: 1 μg/mL) in DMSO was prepared and used as a sample solution; when TA100 or WP2uvrA was used as a test strain, a solution of AF-2 (compound concentration: 0.1 μg/mL) in DMSO was prepared and used as a sample solution; when TA1535 was used as a test strain, a solution of NaN3 (compound concentration: 5 μg/mL) in water for injection was prepared and used as a sample solution; and when TA1537 was used as a test strain, a solution of 9AA (compound concentration: 800 μg/mL) in DMSO was prepared and used as a sample solution. […]
(In general: The Ames test uses bacterial strains that need an amino acid and regain growth without it when mutated back.)

Data set [2] has as its system Salmonella typhimurium TA1535. Put plainly: Reverse mutation test (Ames test), strain TA1535. Type of data set: cell-based. As to the method:
as §1, §2, §3

The test system of data set [3] is Salmonella typhimurium TA100. The data set is described as follows: Reverse mutation test (Ames test), strain TA100. Type of data set: cell-based. On the procedure: as §1, §2, §3
In data set [4] the test system is Salmonella typhimurium TA98 and TA100, TA1535, TA1537 and Escherichia coli WP2uvrA. The data set is described as follows: Reverse mutation test (Ames test), overall judgment over all strains. Type of data set: cell-based. On the procedure: as §1, §2, §3
The subject of data set [5] is Salmonella typhimurium TA1537. The data set is described as follows: Reverse mutation test (Ames test), strain TA1537. Type of data set: cell-based. As to the method: as §1, §2, §3
Data set [6] concerns Salmonella typhimurium TA98. The data set is described as follows: Reverse mutation test (Ames test), strain TA98. Type of data set: cell-based. On the procedure:
as §1, §2, §3

The conditions of data set [7]: reported in WO03/106439; cited from earlier work.
For data set [8] the following is noted: [125I]-labeled compounds; cited from earlier work.
For data set [9] the following is noted: rats, [11C]-labeled; cited from earlier work.

T1 sequence (P05067 672-713 limits assumed): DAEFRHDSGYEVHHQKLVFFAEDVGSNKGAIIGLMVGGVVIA

`COc1cc(OCCO)ccc1-c1cn2cc([123I])ccc2n1`: the “Binding to intracerebral amyloid” value in data set [1] is reported as “property of binding to intracerebral amyloid”.
In the case of `COc1ccc2nc(-c3ccc(OCCCF)c(I)c3)cn2c1` [Compound 5, 2-[4′-(3″-fluoropropoxy)-3′-iodophenyl]-6-methoxyimidazo[1,2-a]pyridine], the “Mutagenicity, WP2uvrA” value in the data set on Escherichia coli WP2uvrA (with addition of S9mix) and in the data set on Escherichia coli WP2uvrA (without addition of S9mix) was “Negative” each time. Moreover, the “Mutagenicity, TA1535” value in data set [2] (with addition of S9mix) and in data set [2] (without addition of S9mix) was “Negative” in each case. Further, the “Mutagenicity, TA100” value in data set [3] (with addition of S9mix) and in [3] (without addition of S9mix) was “Negative” in each case. In data set [4] (all strains, with and without S9mix), the “Judgment in the Ames test (mutagenicity)” value is “negative”. The “Number of reverse mutation colonies relative to the negative control” value in data set [4] (regardless of addition of S9mix and addition amount) is on record as “less than two times”. Moreover, the “Mutagenicity, TA1537” value in data set [5] (with addition of S9mix) and in data set [5] (without addition of S9mix) was “Negative” each time. Also, the “Mutagenicity, TA98” value in data set [6] (with addition of S9mix) and in data set [6] (without addition of S9mix) was “Negative” each time.
As to `CN(C)c1ccc(-c2cn3cc(I)ccc3n2)cc1` [IMPY, 6-iodo-2-[4′-(N,N-dimethylamino)phenyl]imidazo[1,2-a]pyridine], the “Result in reverse mutation test” value in [7] is recorded as “positive”. The “Clearance from normal tissues” value in [8] was “rapid clearance from normal tissues”.
In the case of `CNc1ccc(/C=C/c2ccc(O)cc2)cc1` [SB-13, (E)-4-methylamino-4′-hydroxystilbene], in data set [9], the “Clearance from normal tissues” value is “shows a clearance from normal tissues”.
